What all share (format): cell-based
Test [1] concerns the target T1, hTLR7 (Homo sapiens, UniProt Q9NYK1).
T1 construct: host or cells: HEK293 (HEK-Blue hTLR7)
T1 sequence (Q9NYK1 27-1049): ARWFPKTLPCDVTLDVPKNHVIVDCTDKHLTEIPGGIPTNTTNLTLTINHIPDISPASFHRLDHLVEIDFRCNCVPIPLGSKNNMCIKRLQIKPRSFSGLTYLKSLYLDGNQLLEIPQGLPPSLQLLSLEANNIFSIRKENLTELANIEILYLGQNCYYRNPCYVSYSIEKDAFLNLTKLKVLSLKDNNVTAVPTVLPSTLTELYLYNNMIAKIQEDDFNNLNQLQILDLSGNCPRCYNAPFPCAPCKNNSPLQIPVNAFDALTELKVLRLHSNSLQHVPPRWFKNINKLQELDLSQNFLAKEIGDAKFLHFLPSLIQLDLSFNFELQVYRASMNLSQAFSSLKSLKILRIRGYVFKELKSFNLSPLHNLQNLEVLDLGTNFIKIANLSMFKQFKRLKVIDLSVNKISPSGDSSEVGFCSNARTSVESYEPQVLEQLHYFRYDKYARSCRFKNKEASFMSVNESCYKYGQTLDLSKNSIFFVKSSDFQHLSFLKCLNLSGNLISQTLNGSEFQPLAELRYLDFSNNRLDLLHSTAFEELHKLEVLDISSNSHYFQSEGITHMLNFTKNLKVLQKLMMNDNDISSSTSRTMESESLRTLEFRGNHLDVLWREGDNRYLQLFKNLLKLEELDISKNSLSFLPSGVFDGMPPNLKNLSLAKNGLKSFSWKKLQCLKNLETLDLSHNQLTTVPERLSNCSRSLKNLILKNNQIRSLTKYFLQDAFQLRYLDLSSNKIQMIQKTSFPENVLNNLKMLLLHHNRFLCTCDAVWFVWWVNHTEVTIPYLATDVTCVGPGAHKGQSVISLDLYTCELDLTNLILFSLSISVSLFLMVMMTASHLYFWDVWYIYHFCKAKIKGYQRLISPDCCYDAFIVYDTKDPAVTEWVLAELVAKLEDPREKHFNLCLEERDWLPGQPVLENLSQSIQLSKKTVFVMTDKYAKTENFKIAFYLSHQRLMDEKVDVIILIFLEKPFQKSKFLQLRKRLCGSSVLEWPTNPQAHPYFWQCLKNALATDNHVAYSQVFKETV
As to the kind of experiment: SEAP reporter assay for hTLR-7 activity (HEK-Blue hTLR7 cells). The conditions noted are these: for EC50: ± SD, hTLR7 transfected HEK-Blue cells, Null subtracted, three independent measurements, 12 hours, read-out: EC50 TLR7. The protocol: (§1) TLR activation induces NF-κB production and subsequent SEAP secretion, which is measured using HEK-Detection media (InvivoGen) containing a colorimetric substrate for SEAP (UV-Vis, 637 nm).
(§2) The experiments followed manufacturer protocol as follows: SEAP levels were measured via absorbance at 637 nm using HEK-Blue Detection cell culture medium (InvivoGen), which contains a SEAP-specific colorimetric substrate. Compound stock solutions were first diluted in sterile DMSO at a concentration of 10 mM. Lower concentrations were prepared by serial dilution of the initial 10 mM stock samples into sterile DMSO and these solutions (22 μL) were subsequently diluted into sterile H2O (198 μL) using a BioTek Precision XS pipetting system. HEK-Blue hTLR7, HEK-Blue hTLR8, Null 1−k, and Null 1 cell suspensions in sterile HEK-Blue Detection medium were prepared at a density of 220,000 cells per mL. Clear bottom, 96-well tissue culture treated plates (Corning) were seeded with hTLR7 and Null 1−k or hTLR8 and Null 1 cell suspensions (180 μL/well), after which 20 μL of the various sample concentrations in 10% v/v DMSO/H2O were added (20 μL) in quadruplicate wells to yield the desired testing concentration in 1% v/v DMSO cell suspension. Plates were incubated at 37° C. and 5% CO2 in the dark. Absorbance measurements were taken at 637 nm at 12 hours, 4 replicates per concentration point, per cell line (hTLR7, hTLR8, Null 1−k, Null 1). Three independent measurements on different days were performed for each analog.
(§3) Corresponding well absorbance values for each concentration tested were averaged with respect to days tested, and the average relative NF-κB induction (UV-Vis, 637 nm) of the null cell lines (Null 1-k or Null 1) were subtracted from the respective average TLR expressing cell line (hTLR7 or hTLR8) absorbance averages. […] The three independent, normalized averages for each analog were then pooled, and the data was fit using the Hill-Slope model (GraphPad Prism v7.0) using the non-linear fit from the [Agonist] vs. response—Variable Slope (four parameters) with a hill slope constrained to less than 3.
Background: Reporter assays use an easily measured gene product as a stand-in for the process of interest.

Test [2] concerns the target T2, hTLR8 (Homo sapiens, UniProt Q9NR97).
T2 construct: host or cells: HEK293 (HEK-Blue hTLR8)
T2 sequence (Q9NR97 27-1041): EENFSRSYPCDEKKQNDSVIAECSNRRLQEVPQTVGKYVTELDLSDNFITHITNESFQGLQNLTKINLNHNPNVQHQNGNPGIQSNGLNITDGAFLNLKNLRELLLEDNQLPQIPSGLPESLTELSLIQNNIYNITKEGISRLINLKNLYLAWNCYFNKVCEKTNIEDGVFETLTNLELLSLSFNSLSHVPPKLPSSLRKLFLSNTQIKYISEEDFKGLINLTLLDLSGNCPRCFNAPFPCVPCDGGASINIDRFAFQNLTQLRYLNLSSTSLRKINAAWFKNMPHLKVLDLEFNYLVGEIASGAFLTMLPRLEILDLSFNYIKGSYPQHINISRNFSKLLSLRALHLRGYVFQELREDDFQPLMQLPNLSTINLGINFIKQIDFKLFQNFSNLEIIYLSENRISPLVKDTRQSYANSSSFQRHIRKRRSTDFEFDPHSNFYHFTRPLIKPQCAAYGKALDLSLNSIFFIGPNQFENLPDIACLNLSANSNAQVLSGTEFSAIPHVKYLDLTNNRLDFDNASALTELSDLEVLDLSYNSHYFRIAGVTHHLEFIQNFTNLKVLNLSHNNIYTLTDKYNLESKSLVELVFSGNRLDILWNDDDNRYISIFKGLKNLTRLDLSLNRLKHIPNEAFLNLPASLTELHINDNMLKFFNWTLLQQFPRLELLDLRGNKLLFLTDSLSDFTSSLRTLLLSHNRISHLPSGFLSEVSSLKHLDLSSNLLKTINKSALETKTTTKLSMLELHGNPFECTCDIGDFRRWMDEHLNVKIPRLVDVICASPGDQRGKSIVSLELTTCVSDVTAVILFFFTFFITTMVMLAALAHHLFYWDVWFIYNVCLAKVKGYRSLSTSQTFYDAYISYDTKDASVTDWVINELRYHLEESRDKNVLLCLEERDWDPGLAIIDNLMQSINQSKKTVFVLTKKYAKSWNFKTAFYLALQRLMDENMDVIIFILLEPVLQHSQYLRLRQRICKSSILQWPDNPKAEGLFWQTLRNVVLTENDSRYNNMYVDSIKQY
The test is described as follows: SEAP reporter assay for hTLR-8 activity (HEK-Blue hTLR8 cells). The conditions noted are these: for EC50: ± SD, hTLR8 transfected HEK-Blue cells, Null subtracted, three independent measurements, 12 hours, >100 = no activity observed at 100 μM, read-out: EC50 TLR8. The protocol:
as §1, §2, §3

The subject of test [3] is canine peripheral blood mononuclear cells (cPBMCs). The test is described as follows: Cytokine production in canine PBMCs by ELISA (Example 2). The conditions noted are these: for Cytokine IFNg / Cytokine IL-2 / Cytokine IL-6 / Cytokine IL-10 / Cytokine IL-12 / Cytokine TNFa: ± SD, 29 hours, ELISA, triplicate. On the procedure: The imidazoquinolines were further screened for cytokine production in canine peripheral blood mononuclear cells (cPBMCs). […] TNFα and IL-12 were chosen as they are typically seen in a Th-1 cytokine response.
Peripheral blood from a healthy canine donor was obtained with appropriate informed consent of the owner and under approved institutional guidelines. Blood (8 mL per tube) was drawn via sterile venipuncture into a BD Vacutainer cell preparation tube containing sodium heparin (BD Biosciences). PBMCs were isolated within one hour following procurement by density gradient centrifugation according to the manufacturer protocol and resuspended to 2.22×10^6 cells/mL in sterile RPMI 1640 medium with L-glutamine (Gibco) supplemented with 100 U/mL penicillin, 100 μg/mL streptomycin (Corning) and 10% (v/v) heat-inactivated Fetalgro (RMBIO). Corning 3917, 96-well tissue culture treated plates were seeded with the PBMC suspension (180 μL/well), 20 μL of the serially diluted TLR agonists were added in triplicate to yield the desired concentrations in a 1% (v/v) DMSO cell suspension. Cells were incubated at 37° C. in 5% CO2 for 9 hours (FIGS. 3A-3D) or 29 hours (Table 2) after which supernatants were removed and frozen at −80° C. Cytokine secretion levels were measured by ELISA (Duoset, R&D Systems) according to the manufacturer protocol. Samples and standards (n=3) were thawed and plated onto a Maxisorp flat-bottom, 384-well plate (Thermo Scientific) using a BioTek Precision XS pipetting system. Cytokine concentrations were determined by a hyperbolic or four-parameter logistic non-linear regression of the recombinant standards and subsequent interpolation using Graphpad Prism 7.0.

Some results are limits rather than exact numbers.

In the case of `CC(C)Cn1cnc2c(N)nc3ccccc3c21` [Compound 1, imiquimod, reference compound], in test [1], the “agonist for TLR7 receptor (in words)” value is “agonists” and the EC50 (commonly the concentration needed to bring the measured effect to its halfway point) was 6800 ± 800 nM. In test [2], the “agonist for TLR8 receptor (in words)” value is recorded as “agonists” and the EC50 was 25 ± 3 µM.

As to `CCCCc1nc2c(N)nc3cc(OC)ccc3c2n1CC(C)C` [Compound 4, 4-Amino-2-butyl-7-methoxy-1-(2-methylpropyl)-1H-imidazo[4,5-c]quinoline], the EC50 in test [1] is 110 ± 10 nM. For the same compound, the EC50 in test [2] was above 100 µM. Besides, in test [3] (20 μM), the “Cytokine IFNg” value was 0 pg/mL, the “Cytokine IL-2” value amounted to 30 ± 29 pg/mL, the “Cytokine IL-6” value was determined as 500 ± 140 pg/mL and the “Cytokine IL-10” value came to 37 ± 13 pg/mL. Further, in test [3] (20 μM), the “Cytokine IL-12” value was found to be 746 ± 130 pg/mL and the “Cytokine TNFa” value is reported as 49 ± 9 pg/mL.

Take `CCCCc1nc2c(N)nc3cc(OC)ccc3c2n1CC(C)(C)O` [Compound 5, 4-Amino-2-butyl-1-(2-hydroxy-2-methylpropyl)-7-methoxy-1H-imidazo[4,5-c]quinoline]: the EC50 in test [1] came to 81 ± 9 nM. Moreover, the EC50 in test [2] stood at 1.7 ± 0.3 µM. In test [3] (20 μM), the “Cytokine IFNg” value came to 14.5 ± 6 pg/mL, the “Cytokine IL-2” value came out at 82 ± 56 pg/mL, the “Cytokine IL-6” value was 290 ± 63 pg/mL and the “Cytokine IL-10” value turned out to be 14 ± 2 pg/mL. In addition, in test [3] (20 μM), the “Cytokine IL-12” value came to 2000 ± 160 pg/mL and the “Cytokine TNFa” value worked out at 64 ± 12 pg/mL.

As to `CCCCc1nc2c(N)nc3cc(Cl)ccc3c2n1CC(C)C` [Compound 6, 4-Amino-2-butyl-7-chloro-1-(2-methylpropyl)-1H-imidazo[4,5-c]quinoline], in test [1], the EC50 is 300 ± 20 nM. Moreover, the EC50 in test [2] is above 100 µM. Besides, in test [3] (20 μM), the “Cytokine IFNg” value was determined as 7 ± 1 pg/mL, the “Cytokine IL-2” value was determined as 63 ± 44 pg/mL, the “Cytokine IL-6” value is recorded as 240 ± 67 pg/mL and the “Cytokine IL-10” value was determined as 14 ± 4 pg/mL. In test [3] (20 μM), the “Cytokine IL-12” value is 760 ± 50 pg/mL and the “Cytokine TNFa” value is given as 91 ± 20 pg/mL.

On to `CCOCc1nc2c(N)nc3cc(Cl)ccc3c2n1CC(C)C` [Compound 7, 4-Amino-7-chloro-2-(ethoxymethyl)-1-(2-methylpropyl)-1H-imidazo[4,5-c]quinoline], for which the EC50 in test [1] came to 910 ± 90 nM. For the same compound, the EC50 in test [2] was above 100 µM. Moreover, in test [3] (20 μM), the “Cytokine IFNg” value was found to be 5 ± 5 pg/mL, the “Cytokine IL-2” value is 50 ± 22 pg/mL, the “Cytokine IL-6” value is listed as 280 ± 81 pg/mL and the “Cytokine IL-10” value was 20 ± 1 pg/mL. Moreover, in test [3] (20 μM), the “Cytokine IL-12” value worked out at 781 ± 40 pg/mL and the “Cytokine TNFa” value came out at 114 ± 25 pg/mL.

For the compound `CCCCc1nc2c(N)nc3cc(Cl)ccc3c2n1CC(C)(C)O` [Compound 8, 4-Amino-2-butyl-7-chloro-1-(2-hydroxy-2-methylpropyl)-1H-imidazo[4,5-c]quinoline], in test [1], the EC50 is 84 ± 7 nM. Further, the EC50 in test [2] was 1.5 ± 0.2 µM. Also, in test [3] (20 μM), the “Cytokine IFNg” value was found to be 13 ± 10 pg/mL, the “Cytokine IL-2” value was found to be 55 ± 30 pg/mL, the “Cytokine IL-6” value is on record as 230 ± 44 pg/mL and the “Cytokine IL-10” value is listed as 7 ± 6 pg/mL. In addition, in test [3] (20 μM), the “Cytokine IL-12” value turned out to be 1700 ± 330 pg/mL and the “Cytokine TNFa” value stood at 22 ± 4 pg/mL.

For `CCCCc1nc2c(N)nc3cc(O)ccc3c2n1CC(C)C` [Compound 14, 4-Amino-2-butyl-7-hydroxy-1-(2-methylpropyl)-1H-imidazo[4,5-c]quinoline], in test [1], the EC50 worked out at 73 ± 5 nM. The “cytokine induction (in words)” value in test [3] is recorded as “barely potentiates any cytokine induction”. In test [3] (20 μM), the “IL-12 response (in words)” value is listed as “one of the lowest IL-12 responses”, the “TNFα response (in words)” value is “one of the highest TNFα responses”, the “Cytokine IFNg” value turned out to be 9 ± 8 pg/mL and the “Cytokine IL-2” value was 79 ± 19 pg/mL. In addition, in test [3] (20 μM), the “Cytokine IL-6” value stood at 330 ± 92 pg/mL, the “Cytokine IL-10” value was determined as 17 ± 3 pg/mL, the “Cytokine IL-12” value is reported as 102 ± 65 pg/mL and the “Cytokine TNFa” value was 270 ± 70 - pg/mL.

The values are drawn from patent US12295970B2, “Imidazoquinoline compounds and prodrugs thereof” (UNIVERSITY OF KANSAS, priority 2019, dated 2025).
